According to US20160095929A1, “PROMOTION OF WOUND HEALING” (Northwestern University, priority 2011, published 2016):
Entries after “also recorded” stand apart in the source; their conditions may differ.

How the values were obtained:
[1] = system: IR; assay: IR phosphorylation / signaling immunoblot in HEKs; format: cell-based, human; details: HEKs 72-96 h; 100 pM EtDOP4, 100 pM TNF-α, GM3 50 μM; insulin 5 μg/ml
Procedure: Cells were starved of growth factors overnight (with treatment continued), then treated for 5-60 mins (15 mins shown) with or without insulin 5 μg/ml. Cells lysates were immunoprecipitated with anti-IR polyclonal antibody and blotted with monoclonal anti-IR, PY-20, or as a loading control, actin. Membrane lysates were immunoprecipitated with IR and immunoblotted with anti-IR (top), PY-20 (second row), anti-IRS-1 (3rd row in B), or to control for loading, actin (bottom). […] Expression of IR was not affected.

[2] = system: GM3; assay: GM3 expression in HEKs (flow cytometry / immunofluorescence with anti-GM3 antibody); format: cell-based, human; details: for GM3 expression (in words): GCS inhibitor, M154 medium and glucose-supplemented medium
Procedure: A. HEKs were treated for 96 h with 0-100 pM TNF-α in complete […] medium and GM3S expression determined by qPCR. B. GM3 was quantified by flow cytometry with anti-GM3 antibody after 0-100 pM TNF-α for 96 h. C, D. HEKs were treated with 12 mM supplemental glucose (C) or in […] medium alone (D) for 72 h and GM3 was detected with anti-GM3 antibody by immunofluorescence. […] Changes in GM3 expression by immunofluorescence with anti-GM3 antibody show efficacy of siRNA- and DNA-Au NPs with 60-72 h incubation. […] C. […] A, B=routine immunofluorescence; C, D and inset of D=confocal microscopy. Bar=14 μm.

[3] = system: ceramides; assay: Ceramide detection with anti-C2 Cer antibody (TLC immunostaining, ELISA) in HEKs; format: cell-based, human; details: TLC immunostaining and ELISA
[4] = system: HEKs; assay: HEK proliferation (WST assay); format: cell-based, human; details: with or without 12 mM glucose, up to 5 days
Procedure: (§1) A. KO and WT mouse KCs, grown in CNT07 medium, were treated with and without 12 mM glucose (Glu) for 72 h, and then plated into 96-well plates. Proliferation was measured by WST assay (Clontech) in the continued presence or absence of Glu. B. Mouse KCs were treated as above, then plated at confluence into Col I-coated 24-well plates in the presence of mitomycin C. Two hours after plating, a scratch was made and migration monitored. Migration was decreased by Glu, but was faster in the KO cells treated with Glu than with vehicle. […] A. HEKs were treated as described in FIG. 7 for mouse KCs and proliferation was measured. […] B. HEKs were treated and scratch assays performed as in FIG. 7. […] C. HEKs were treated with Glu and/or C9, but starved during the last 18 h. Cells were plated on the top of Col I-coated Boyden inserts in supplement-free medium, while the lower level was filled with the same medium with and without insulin (5 μg/ml) or IGF-1 (100 ng/ml) (Haase et al. J Cell Sci 2003; 116:3227-38.; herein incorporated by reference in its entirety). After 18 h, HEKs on the bottom surface were stained and counted. […] D-G. After their incubation in Glu and/or C9, HEKs were plated onto Col I-coated glass dishes and, 2 h later, single cells were imaged every 2 mins over a 2 h period using a Biostation phase contrast microscope (Nikon). […]

[5] = system: globotriaosylceramide; details: patients with Fabry disease; cited from earlier work
[6] = system: HEKs; assay: HEK scratch migration assay; format: cell-based, human; details: mitomycin C, with or without glucose
Procedure: as §1

[7] = system: mouse KCs; assay: Mouse KC in vitro wound (scratch) migration assay; format: cell-based; details: WT primary mouse KCs
Procedure: (§2) FIGS. 13A-C show ganglioside depletion reverses glucose-induced inhibition of proliferation and in vitro wound healing. (A) Mouse KCs were cultured in standard medium (8 mM glucose) or medium supplemented with 12 mM glucose treated for 72 h, and then plated at confluence onto collagen I-coated 24-well plates in the presence of mitomycin C to prevent proliferation. Two hours after plating, a scratch was made and migration was monitored photographically during the subsequent 60 h in the continued presence or absence of glucose. (B) Quantification of wound healing shown in (A) by computerized measurements of the unfilled gap. (C) Proliferation of mouse KCs was measured by WST assay in standard or glucose-supplemented medium. In vitro proliferation, migration and motility assays. […] For proliferation assays, KCs were plated onto 96-well (2×10^3 cell/well) or 12-well (2×10^4 cell/well) plates and cell proliferation was assessed daily for 5 d by either WST assay (96-well plate) per manufacturer's instruction (Clontech, Calif.) and manual counting using a hemacytometer (12-well plate). Cell migration was assessed by in vitro wound (scratch) assays as previously described (47). […] Cell migration in complete CnT-07 medium in the presence of 4 μg/mL mitomycin was recorded photographically every 3-4 h for 60 h under an inverted phase-contrast microscope (Nikon). […]

[8] = system: mouse KCs; assay: Mouse KC proliferation (WST assay); format: cell-based; details: WT primary mouse KCs
Procedure: as §2

[9] = system: p-cofilin; assay: p-cofilin immunoblotting in HEKs; format: cell-based, human; details: HEKs treated 72 h, immunoblot
Procedure: HEKs were treated for 72 h with or without Glu, C9, Glu+C9 (A), or with sense DNA-Au NPs or the hybrid GM2/GD2S and GD3S antisense-Au NPs (B). Immunoblotting of cell lysates detected p-cofilin8 ([…]), cofilin and, as a loading control, GAPDH.

[10] = phase II trials for Gaucher disease; cited from earlier work
[11] = in animals, relative to P4; cited from earlier work
[12] = target: T1, GCS (Homo sapiens, UniProt Q16739); details: cited from earlier work
T1 sequence (Q16739 1-394): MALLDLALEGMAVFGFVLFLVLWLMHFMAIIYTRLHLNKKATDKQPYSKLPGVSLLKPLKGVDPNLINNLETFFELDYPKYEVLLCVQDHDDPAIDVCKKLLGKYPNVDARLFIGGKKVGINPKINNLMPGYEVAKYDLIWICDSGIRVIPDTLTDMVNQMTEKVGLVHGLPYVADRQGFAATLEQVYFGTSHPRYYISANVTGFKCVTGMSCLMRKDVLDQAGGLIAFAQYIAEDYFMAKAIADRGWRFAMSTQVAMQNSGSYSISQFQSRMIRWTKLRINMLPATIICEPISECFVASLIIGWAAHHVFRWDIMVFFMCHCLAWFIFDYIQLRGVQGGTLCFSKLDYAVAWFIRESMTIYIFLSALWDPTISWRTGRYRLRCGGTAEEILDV

[13] = system: HEKs; assay: HEK chemotaxis, Col I-coated Boyden inserts; format: cell-based, human; details: supplemental Glu, 18 h, with or without insulin 5 μg/ml or IGF-1 100 ng/ml
Procedure: (§3) A. HEKs were treated as described in FIG. 7 for mouse KCs and proliferation was measured. […] B. HEKs were treated and scratch assays performed as in FIG. 7. […] C. HEKs were treated with Glu and/or C9, but starved during the last 18 h. Cells were plated on the top of Col I-coated Boyden inserts in supplement-free medium, while the lower level was filled with the same medium with and without insulin (5 μg/ml) or IGF-1 (100 ng/ml) (Haase et al. J Cell Sci 2003; 116:3227-38.; herein incorporated by reference in its entirety). After 18 h, HEKs on the bottom surface were stained and counted. […] D-G. After their incubation in Glu and/or C9, HEKs were plated onto Col I-coated glass dishes and, 2 h later, single cells were imaged every 2 mins over a 2 h period using a Biostation phase contrast microscope (Nikon). […] Vector maps constructed with 10 representative tracks (G) further show reversal of the impact of Glu with C9 alone (which was approximately the same as with growth factors).

[14] = system: HEKs; assay: HEK single live cell imaging (Biostation); format: cell-based, human; details: Glu-treated HEKs
Procedure: as §3

[15] = system: IGF-1R; assay: IGF-1R phosphorylation immunoblot in HEKs; format: cell-based, human; details: HEKs 72 h, with or without Glu; IGF-1 100 ng/ml or insulin 5 μg/ml
[16] = system: α5 integrin; details: on fibronectin (FN); cited from earlier work

TNF-α
IR signaling / IR phosphorylation (in words) [1]: suppresses IR signaling
increase in membrane-based GM3 expression ([2]; 0-100 pM TNF-α for 96 h, flow cytometry): 10 fold

CCCCCCCCCCCCCCCC(=O)N[C@H](CN1CCCC1)[C@H](O)c1ccc2c(c1)OCCO2 [EtDOP4, D-threo-EtDO-P4]
ceramide level (in words) [3]: neither C9 nor EtDOP4 increase ceramide
IR signaling / IR phosphorylation (in words) [1]: rescues the suppression of TNF-α of IR phosphorylation
proliferation (in words) [4]: increases
accumulation of globotriaosylceramide [5]: decrease the accumulation of globotriaosylceramide
migration (in words) [6]: increases
GM3 expression (in words) [2]: deplete GM3

lactosylceramide [LacCer]
migration (in words) [7]: slightly decreased
proliferation (in words) [8]: slightly decreased

insulin: growth factor, 5 μg/ml
phosphorylation of cofilin (in words) [9]: decrease p-cofilin

eliglustat tartrate
toxicity [10]: showed little toxicity

CCCCCCCCC(=O)N[C@H](CN1CCCC1)[C@H](O)c1ccc2c(c1)OCCO2.O=C(O)C(O)C(O)C(=O)O [C9]
ceramide level (in words) [3]: does not increase ceramides; also recorded: neither C9 nor EtDOP4 increase ceramide
metabolic and tolerability profile [11]: better metabolic and tolerability profile
phosphorylation of cofilin (in words) [9]: decrease p-cofilin
potency at inhibiting GCS relative to P4 [12]: somewhat less potent
proliferation (in words) [4]: greatest in cells treated with Glu and C9; also recorded: increases
chemotaxis (in words) [13]: increased chemotaxis of HEKs exposed to supplemental Glu
migration (in words) [6]: even faster in the HEKs treated with C9+Glu than in vehicle-treated HEKs; also recorded: increases
net displacement (reflecting persistence) ([14]; at 2 h): significantly increased
total distance (reflecting velocity) ([14]; at 2 h): significantly increased
cell polarity (in words) ([14]; imaged over 2 h): increased cell polarity
reduction in GM3 expression ([2]; 1 μM C9 for 72 h, flow cytometry): 93%
GM3 expression (in words) [2]: prevents GM3 expression; also recorded: deplete GM3
IGF-1R phosphorylation (in words) [15]: phosphorylates IGF-1R, including in the presence of supplemental glucose; also recorded: reverses the glucose-induced suppression of IGF-1R activation

GT1b
KC migration [16]: inhibit KC migration specifically on fibronectin (FN)

IGF-1: insulin-like growth factor 1
phosphorylation of cofilin (in words) [9]: decrease p-cofilin
